# Assay results: patent EP1021088B1, “FUNGICIDE MIXTURES BASED ON FLUQUINCONAZOLE” (Aventis CropScience UK Limited, priority 1997, dated 1999)
# Assays:
# [1] = system: Erysiphe graminis (powdery mildew); assay: Control of powdery mildew on wheat plants, spraying one day after inoculation; type: in vivo; conditions: sprayed one day after inoculation
# Description: (§1) Wheat plants were inoculated with Erysiphe graminis (powdery mildew). Two days after inoculation, they were sprayed with fluquinconazole, obtained by diluting with water to the desired concentration, a suspension concentrate comprising 10% by weight active ingredient, or azoxystrobin obtained by diluting with water to the desired concentration, the commercial product sold under the trade name "Amistar", or mixtures of these. One week after inoculation, the wheat was assessed for control of disease. To indicate the existence of synergism between the active components the results were treated in the manner described by Colby S.R., "Calculating Synergistic and Antagonistic Responses of Herbicide Combinations" in Weeds 1967 15, 20-22). In this method the "expected" percent control of growth, E, of the combination compared with untreated control is given by the equation E = A + F -(AF)/(100) [formula] where A is the % control by azoxystrobin used alone at a given concentration and F is the % control by fluquinconazole, used alone at a given concentration. […] In the table, component "az" is azoxystrobin and "fq" is fluquinconazole. Table 1 In a similar manner, Example 1 was repeated with spraying one day after inoculation. The results are as follows Table 2
# [2] = system: Erysiphe graminis (powdery mildew); assay: Control of powdery mildew on wheat plants, spraying two days after inoculation; type: in vivo; conditions: sprayed two days after inoculation, assessed one week after inoculation
# Description: as §1, with “fluquinconazole.” for “fluquinconazole. Table 1 In a similar manner, Example 1 was repeated with spraying one day after inoculation. The results are as follows Table 2”
Compound,% Control Observed ([1]; az 31.25 g cpd/ha),% Control Observed ([1]; az 62.5 g cpd/ha),% Control Observed ([2]; az 31.25 g cpd/ha),% Control Observed ([2]; az 62.5 g cpd/ha),% Control Observed ([2]; az 125 g cpd/ha),% Control Observed ([2]; az 187.5 g cpd/ha),% Control Observed ([1]; fq 15.25 g cpd/ha),% Control Observed ([1]; fq 31.25 g cpd/ha),% Control Observed ([2]; fq 15.25 g cpd/ha),% Control Observed ([2]; fq 31.25 g cpd/ha)
"CO/C=C(/C(=O)OC)c1ccccc1Oc1cc(Oc2ccccc2C#N)ncn1 [az, methyl (E)-2-{2-[6-(2-cyanophenoxy)pyrimidin-4-yloxy]phenyl}-3-methoxyacrylate]",0%,0%,10%,12%,42%,62%,,,,
"O=c1c2cc(F)ccc2nc(-n2cncn2)n1-c1ccc(Cl)cc1Cl [fq, 3-(2,4-dichlorophenyl)-6-fluoro-2-((1H)-1,2,4-triazol-1-yl)-4(3H)-quinazolinone]",,,,,,,12%,68%,24%,70%
